Values of other authors as cited in patent US20090156647A1, “Method for maintaining physiological pH levels during intensive physical exercise” (IOVATE T. & P. INC., priority 2007, published 2009).

Conditions: about 1.5 g of HICA daily after intense exercise for 42 days

CC(C)CC(O)C(=O)O (centres unmarked) [HICA, 2-hydroxy-4-methylvaleric acid]
delayed onset muscular soreness (DOMS) experienced by subjects: little to no DOMS | total lean soft tissue mass: statistically significant increase
